Experimental data taken from ChEMBL document CHEMBL1201862, “PubChem BioAssay data set” (2004).
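Tested at 5 concentrations; 48 h exposure; 96-well plates; endpoints linearly interpolated, else capped at highest concentration. At the GI50, growth is halved.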 Active and inactive are the calls of the source. Cut-off read from the data, not from the text of the source: active = GI50 up to about 1.1 µM and inactive = higher.

Key:
Assay in all cases: NCI anticancer screen, dose series, 48 h
DLD-1 = tested on: DLD-1
LXFL 529 = tested on: LXFL 529
DMS-273 = tested on: DMS-273
RXF 631 = tested on: RXF 631
DMS-114 = tested on: DMS-114
HOP-18 = tested on: HOP-18
SNB-78 = tested on: SNB-78
M19-MEL = tested on: M19-MEL
KM-20L2 = tested on: KM-20L2

SMILES | GI50 (DLD-1) | GI50 (LXFL 529) | GI50 (DMS-273) | GI50 (RXF 631) | GI50 (DMS-114) | GI50 (HOP-18) | GI50 (SNB-78) | GI50 (M19-MEL) | GI50 (KM-20L2)
O=C(NN1C(=O)CS(=O)(=O)C1c1cccc(F)c1)c1ccncc1 (stereo unspecified) | > 100 µM (inactive) | > 100 µM (inactive) | > 100 µM (inactive) | > 100 µM (inactive) | > 100 µM (inactive) | < 0.01 µM (active) | > 10 µM (inactive) |  | 
Cc1ccc(S(=O)(=O)N/N=C(\C(=O)Nc2cccc([N+](=O)[O-])c2)c2nc3ccc([N+](=O)[O-])cc3nc2O)cc1 | > 100 µM (inactive) | 18.6 µM (inactive) |  |  | 10.2 µM (inactive) |  | > 100 µM (inactive) | 43.7 µM (inactive) | 
COC1(OC)c2ccccc2C2(O)c3ccccc3C(=O)C12 (stereo unspecified) |  | 20.7 µM (inactive) | 25.2 µM (inactive) |  | 35.6 µM (inactive) | 52 µM (inactive) | 64.4 µM (inactive) | 34.7 µM (inactive) | 40.6 µM (inactive)
CC(NC(=O)C(=O)N/N=C1\C[C@@H](c2ccccc2)Nc2ccccc21)c1ccccc1 (stereo partly specified) | > 100 µM (inactive) | 77.4 µM (inactive) | 7.55 µM (inactive) |  | 97.1 µM (inactive) | < 0.01 µM (active) | > 100 µM (inactive) | > 100 µM (inactive) | > 100 µM (inactive)
N#CC(C#N)=C(N)/C(C#N)=C/c1ccc(O)c(O)c1 | 71.3 µM (inactive) | 40.7 µM (inactive) | 59.2 µM (inactive) |  | 25.1 µM (inactive) |  | > 100 µM (inactive) | > 100 µM (inactive) | 25.1 µM (inactive)
Cn1nnc2c(C(N)=O)ncn2c1=O [TEMOZOLOMIDE] | > 100 µM (inactive) | > 100 µM (inactive) |  |  | > 100 µM (inactive) | > 100 µM (inactive) | > 100 µM (inactive) | > 100 µM (inactive) | > 100 µM (inactive)
O=[N+]([O-])c1nccn1CC(O)c1ccccc1 (stereo unspecified) |  | > 100 µM (inactive) | > 100 µM (inactive) |  | > 100 µM (inactive) | > 100 µM (inactive) |  |  | > 100 µM (inactive)
CN1CCN(CCCN2c3ccccc3Sc3ccc(C(F)(F)F)cc32)CC1 | 13.8 µM (inactive) | 10.2 µM (inactive) | 6.65 µM (inactive) |  | 10 µM (inactive) | 9.89 µM (inactive) | 15.7 µM (inactive) | 1.87 µM (inactive) | 2.27 µM (inactive)
Nc1ccc(C(=O)N/C(=C\c2ccc3c(c2)OCO3)c2nc3ccc4c(c3[nH]2)C(=O)c2ccccc2C4=O)cc1 | 9.82 µM (inactive) | 30.5 µM (inactive) | 23.6 µM (inactive) | 37.3 µM (inactive) | 28.2 µM (inactive) |  | 45.9 µM (inactive) | 38.2 µM (inactive) | 59.6 µM (inactive)
O=C(Nc1ccccc1)c1ccc(Cl)c([N+](=O)[O-])c1 | 23.4 µM (inactive) | 3.78 µM (inactive) | 3.45 µM (inactive) |  | 16.6 µM (inactive) |  | 17.3 µM (inactive) | 12.5 µM (inactive) | 13.5 µM (inactive)
COc1cc2c(cc1O)C(C)Cc1cc3c(cc1N(C)CC2)OCO3 (stereo unspecified) | 4.16 µM (inactive) | 5.41 µM (inactive) | 2.87 µM (inactive) | 18.7 µM (inactive) | 3.54 µM (inactive) | 10.5 µM (inactive) | 5.12 µM (inactive) | 5.81 µM (inactive) | 12.4 µM (inactive)
COC(=O)C1=C(C(=O)OC)C2=S(SC3=C2CCCC3)S1 (stereo unspecified) | 24 µM (inactive) | 5.05 µM (inactive) | 13.1 µM (inactive) |  |  |  |  | 26.5 µM (inactive) | 24.6 µM (inactive)
O=C(/C=C\c1cccc2ccccc12)c1ccc(Cl)cc1Cl | 22 µM (inactive) | 18.3 µM (inactive) | 18.8 µM (inactive) | 23.8 µM (inactive) | 14.8 µM (inactive) | 22.8 µM (inactive) | 20.3 µM (inactive) | 19.1 µM (inactive) | 31 µM (inactive)
CC(C)(C)c1cc(O)c2c(c1O)C(=O)CCC2 | 37.9 µM (inactive) | 34.8 µM (inactive) | 34.8 µM (inactive) | 57.7 µM (inactive) | 20.3 µM (inactive) | 60.5 µM (inactive) | 32.7 µM (inactive) | 30.5 µM (inactive) | 40.1 µM (inactive)
CN(C)CCNC(=O)c1cccc2nc3c(Cl)cccc3nc12 | 4.43 µM (inactive) | 9.84 µM (inactive) | 5.09 µM (inactive) | 6.92 µM (inactive) | 3.57 µM (inactive) | > 30.7 µM (inactive) |  | 2.96 µM (inactive) | 5.52 µM (inactive)
CC1=NN2C(c3ccc(C)cc3)=CSC2=NC(C)(C)C1 | > 100 µM (inactive) | > 100 µM (inactive) |  |  | 71 µM (inactive) | > 100 µM (inactive) | > 100 µM (inactive) | > 100 µM (inactive) | > 100 µM (inactive)

SMILES | GI50 (DLD-1) | GI50 (LXFL 529) | GI50 (DMS-273) | GI50 (RXF 631) | GI50 (DMS-114) | GI50 (HOP-18) | GI50 (SNB-78) | GI50 (M19-MEL) | GI50 (KM-20L2)
COC(=O)[C@@]1(O)CC(C)C=C1C=O (stereo partly specified) | 43 µM (inactive) | 68.7 µM (inactive) | 19.2 µM (inactive) |  | 30.2 µM (inactive) | > 100 µM (inactive) | 20.2 µM (inactive) | 80.7 µM (inactive) | > 100 µM (inactive)
COc1ccc(C(=O)OC2C=COC(C)C2OC(=O)c2ccc(OC)cc2)cc1 (stereo unspecified) | 16.4 µM (inactive) | 14.5 µM (inactive) | 23.3 µM (inactive) | 26.4 µM (inactive) | 17.5 µM (inactive) | 27.2 µM (inactive) | 22.5 µM (inactive) | 30.7 µM (inactive) | 27.6 µM (inactive)
CCCCCCCCCCCCCCCCCC(=O)NCC(COP(=O)([O-])OCC[N+](C)(C)C)OC (stereo unspecified) | 2.59 µM (inactive) | 6.78 µM (inactive) | 1.58 µM (inactive) | 13.4 µM (inactive) | 10.6 µM (inactive) | 3.78 µM (inactive) | 4.3 µM (inactive) | 2.43 µM (inactive) | 2.23 µM (inactive)
COc1ccc(/C=C/C(=O)C(C)(C)CN2CCCCC2)cc1 | 18 µM (inactive) | 15.5 µM (inactive) | 18.2 µM (inactive) |  | 15 µM (inactive) | 16.9 µM (inactive) | 17.1 µM (inactive) | 16.4 µM (inactive) | 20.2 µM (inactive)
CC(=O)N(C)c1ccc2c(ccc[n+]2[O-])c1[N+](=O)[O-] | > 100 µM (inactive) | > 100 µM (inactive) | > 100 µM (inactive) | > 100 µM (inactive) | > 100 µM (inactive) | > 100 µM (inactive) | > 100 µM (inactive) | > 100 µM (inactive) | > 100 µM (inactive)
CC1=CCC[C@@]2(C)C(CC[C@@H]2C(C)/C=C/C(C)C)c2ccc(cc2C(=O)O)C[C@@H](O)CC1 (stereo partly specified) | 3.67 µM (inactive) | 11.6 µM (inactive) | 14.4 µM (inactive) |  | 18.5 µM (inactive) |  | 16.1 µM (inactive) | 12.7 µM (inactive) | 
[O-]/[N+](=C\c1ccccc1)[C@H](COCc1ccccc1)c1ccccc1 | > 100 µM (inactive) | > 100 µM (inactive) | 93.8 µM (inactive) | > 100 µM (inactive) | 54.1 µM (inactive) | 20.3 µM (inactive) | 66.5 µM (inactive) | > 100 µM (inactive) | > 100 µM (inactive)
C[C@]12CCC3[C@@H](CC[C@@H]4c5nonc5CC[C@]34C)C1CCC(=O)N2 (stereo partly specified) |  | > 100 µM (inactive) | > 100 µM (inactive) | > 100 µM (inactive) |  | > 100 µM (inactive) | > 100 µM (inactive) | > 100 µM (inactive) | > 100 µM (inactive)
CCCCCCCCCCCCCCCCCCN(C)CC(COC)OP(=O)([O-])OCC[N+](C)(C)C (stereo unspecified) | 1.47 µM (inactive) | 2.21 µM (inactive) | 0.625 µM (active) | 5.25 µM (inactive) | 2.84 µM (inactive) | 1.85 µM (inactive) | 3.56 µM (inactive) | 2.75 µM (inactive) | 2 µM (inactive)
CC1C(=O)C(C)C(c2ccccc2)N(N=O)C1c1ccccc1 (stereo unspecified) | > 100 µM (inactive) | > 1000 µM (inactive) | > 798 µM (inactive) |  |  | > 100 µM (inactive) | > 47 µM (inactive) | > 100 µM (inactive) | > 1000 µM (inactive)
CCCCCCCCCCCCC/C=C1\C[C@H](O)COC1=O | 17 µM (inactive) | 16.3 µM (inactive) | 14.4 µM (inactive) |  |  | 17.4 µM (inactive) | 18.4 µM (inactive) | 18.4 µM (inactive) | 16.9 µM (inactive)
CC(=O)NNc1nc(C)c(C(=O)NNC(=O)C(=O)Nc2ccc(Cl)c([N+](=O)[O-])c2)s1 |  | 27.2 µM (inactive) |  |  | 46.9 µM (inactive) |  | 45.8 µM (inactive) | 67.8 µM (inactive) | > 100 µM (inactive)
COc1c(C=O)c2c(c(OC)c1OC)-c1ccc(OC)c(=O)cc1[C@@H](NC(C)=O)CC2 | 0.0614 µM (active) | 0.0191 µM (active) | 0.029 µM (active) | 0.229 µM (active) | < 0.0146 µM (active) | 21.6 µM (inactive) | < 0.0147 µM (active) | 0.0764 µM (active) | 0.0364 µM (active)
Cc1ccc(Nc2nc(C)c(C(/C=C/c3ccc4c(c3)OCO4)=N/Nc3ccc([N+](=O)[O-])cc3[N+](=O)[O-])s2)c([N+](=O)[O-])c1 | 27.6 µM (inactive) | 6.03 µM (inactive) | 25.9 µM (inactive) | 42.5 µM (inactive) | 13.3 µM (inactive) | 7.69 µM (inactive) | 50.7 µM (inactive) | 59.7 µM (inactive) | 33.9 µM (inactive)
NCc1c(C(N)=O)ncn1Cc1ccccc1 |  | > 100 µM (inactive) | > 100 µM (inactive) |  | > 100 µM (inactive) | > 100 µM (inactive) | > 100 µM (inactive) | > 100 µM (inactive) | > 100 µM (inactive)
CCN(C(C)=N)c1ccccc1 | > 100 µM (inactive) | 75.9 µM (inactive) |  |  | 36.5 µM (inactive) | > 100 µM (inactive) | > 100 µM (inactive) | 95.5 µM (inactive) | > 100 µM (inactive)
